Results published in patent US20240269238A1, “Therapeutic Regimens and Methods for Reducing Body Weight in a Subject with Fatty Liver Disease using a GLP-1R and GCGR Agonist” (Spitfire Pharma LLC, priority 2022, published 2024).
“Also recorded” adds a separate entry of the source.

What was measured:
[1] = Phase 1 study NCT0456124 (Example 2): safety and tolerability; format: in vivo, human; conditions: 12 weeks
[2] = Phase II 24-week interim analysis in non-diabetic obese and overweight subjects (NCT05295875, Example 4); format: in vivo, human
Source text: Results presented in this example correspond to a 24-week interim analysis obtained from a placebo-controlled phase II study (ClinicalTrials.gov Identifier: NCT05295875) evaluating pemvidutide (ALT-801) in obese and overweight subjects. It is estimated that 70 to 75% subjects of this population have NAFLD while 34% may have NASH (Quek J. et al. Global prevalence of non-alcoholic fatty liver disease and non-alcoholic steatohepatitis in the overweight and obese population: a systematic review and meta-analysis. Lancet Gastroenterol Hepatol. 2023 January; 8(1):20-30). Key eligibility criteria were: (1) Men and women, ages 18-75 years; (2) at least one unsuccessful weight loss attempt per Investigator judgement; (3) Body Mass Index (BMI) ≥30 kg/m2 or BMI ≥27 kg/m2 with at least one obesity-related comorbidity (history of cardiovascular disease, hypertension, dyslipidemia, pre-diabetes or obstructive sleep apnea) and (4) non-diabetes (HbA1c ≤6.5% and fasting glucose ≤125 mg/dL). Eligible subjects were randomized 1:1:1:1 to one of the following treatment arms: Group 1 (39 subjects): pemvidutide 1.2 mg SC once weekly for 24 weeks; Group 2 (40 subjects): pemvidutide 1.8 mg administered subcutaneously once weekly for 24 weeks; Group 3 (40 subjects): pemvidutide 0.6 mg administered subcutaneously for 1 week, 1.2 mg administered subcutaneously for 1 week, 1.8 mg administered subcutaneously once weekly for 2 weeks, followed by 2.4 mg administered subcutaneously once weekly for 20 additional weeks (in sequence) and Group 4 (41 subjects): Placebo administered subcutaneously once weekly for 24 weeks. The randomization of subjects was stratified based on sex and baseline body mass index (BMI <35 kg/m2 vs. ≥35 kg/m2). A minimum of 25% of randomized subjects were male. All subjects received counselling on a reduced-calorie diet of 1200-1500 calories for individuals <250 lbs (113.6 kg) and 1500-1800 calories for individuals ≥250 lbs (113.6 kg) and a gradual increase in physical activity (targeting 150 min of physical activity per week) by a qualified healthcare professional at screening and at subsequent visits during the treatment period. Subjects were instructed to record their food intake and physical activity daily, and compliance with lifestyle interventions will be assessed by the investigator on a regular basis. A subgroup of subjects were subjected MRI-PDFF to evaluate the hepatic fat fraction in as well as composition to measure total body adipose tissue (AT) and adipose tissue-free mass (ATFM).
FIG. 27 presents the mean percentage weight loss over time in all evaluated subjects across the three pemvidutide doses and placebo over 24 weeks. Results are presented as efficacy estimand that assumes subjects remained on treatment for the entire duration, with missing values handled by Mixed Models for Repeated Measures. […] FIG. 28 presents the mean percentage weight loss (presented as efficacy estimand as described above) that was achieved over 24 weeks with pemvidutide and placebo in a subgroup of subjects with baseline body weight ≤115 kg. […] This phenomenon may relate to a lower level of drug exposure in subjects with higher body weight, and would support the possibility to increase dose levels in this population to maximize efficacy. FIG. 29 presents a weight loss responder analysis based on calculation of percentage of subjects who respectively achieve ≥5%, ≥10% and ≥15% weight loss across the three pemvidutide doses and placebo. FIG. 30 presents the percentage weight loss achieved across the four groups comparing Hispanic versus non-Hispanic subjects. […] Waist circumference is an index of central or abdominal obesity recommended by the WHO to assess the risk of metabolic diseases such as NAFLD and NASH and cardiovascular diseases.

## CC[C@H](C)[C@H](NC(=O)[C@H](Cc1ccccc1)NC(=O)[C@H](CCC(=O)O)NC(=O)[C@@H]1CCCCNC(=O)CC[C@H](NC(=O)[C@H](CC(=O)O)NC(=O)[C@H](CC(C)C)NC(=O)[C@H](Cc2ccc(O)cc2)NC(=O)[C@H](CCCCN)NC(=O)[C@H](CO)NC(=O)[C@H](Cc2ccc(O)cc2)NC(=O)[C@H](CC(=O)O)NC(=O)[C@H](CO)NC(=O)[C@@H](NC(=O)[C@H](Cc2ccccc2)NC(=O)[C@@H](NC(=O)CNC(=O)[C@H](CCC(N)=O)NC(=O)C(C)(C)NC(=O)[C@@H](N)Cc2c[nH]cn2)[C@@H](C)O)[C@H](C)O)C(=O)N[C@@H](CCCCNC(=O)C2O[C@@H](OCCCCCCCCCCCCCCCCCC(=O)O)C(O)C(O)[C@@H]2O)C(=O)N[C@@H](C)C(=O)N[C@@H](C)C(=O)N1)C(=O)N[C@@H](CCC(N)=O)C(=O)N[C@@H](Cc1c[nH]c2ccccc12)C(=O)N[C@@H](CC(C)C)C(=O)N[C@@H](CC(C)C)C(=O)N[C@@H](CCC(N)=O)C(=O)N[C@H](C(N)=O)[C@@H](C)O (stereo partly shown) [ALT-801, Pemvidutide]
[1]; 1.2, 1.8, 2.4 mg weekly, no dose titration
  tolerability: well-tolerated at all dose levels; also recorded: safe and well-tolerated
[1]
  SAEs or AEs leading to treatment discontinuation: no SAEs or AEs leading to treatment discontinuation were reported
  severity of AEs: mild or moderate severity
[2]; 1.2, 1.8, 2.4 mg, 24-week treatment
  heart rate: do not induce a significant change in heart rates
[2]; 24-week treatment
  systolic and diastolic blood pressure: improves both systolic and diastolic blood pressures in a dose dependent manner
[2]; 24 weeks
  weight loss, Hispanic versus non-Hispanic subjects: tend to lose less body weight
[2]; all doses, week 24
  serum lipids: decreased as compared to baseline
  waist circumference: significant reduction in waist circumference
[2]; all evaluated subjects, 1.2, 1.8, 2.4 mg, 24 weeks
  mean percentage weight loss over time: progressive, dose-dependent weight loss
[2]; baseline body weight <=115 kg, 24 weeks
  weight loss in subgroup vs all subjects: higher levels of weight loss
